Test results published in ChEMBL document CHEMBL1142642, “Hermitamides A and B, toxic malyngamide-type natural products from the marine cyanobacterium Lyngbya majuscula” (J Nat Prod, 2000).

Assays:
Biomphalaria glabrata = test: Molluscicidal activity against Biomphalaria glabrata at 10 ppm; format: organism-based; details: in vivo
[1] = Ichthyotoxicity to gold fish; format: organism-based; details: carassius auratus, in vivo; read-out: LD50 (the source's name)
[2] = Cytotoxicity against mouse Neuro2a cells after 24 hrs by MTT assay; format: cell-based; details: N2a
[3] = Toxicity in Artemia salina; format: organism-based; details: in vivo, read-out: LD50 (the source's name)

Structure (SMILES)	Activity (Biomphalaria glabrata)	LC50 [1] [µM]	IC50 [2] [µM]	LC50 [3] [µM]
CCCCCCC[C@@H](C/C=C/CCC(=O)NCCc1ccccc1)OC [HERMITAMIDE A]	Not Active	19	2.2	5
CCCCCCC[C@@H](C/C=C/CCC(=O)NCCc1c[nH]c2ccccc12)OC [HERMITAMIDE B]	Not Active	25	5.5	18
CCCCCCC[C@@H](C/C=C/CCC(=O)N(C)C/C(=C/Cl)c1cccc(C)c1O)OC [MALYNGAMIDE M]			> 20	
CCCCCCC[C@@H](C/C=C/CCC(=O)N(C)C/C(=C/Cl)[C@]12O[C@H]1CC=C(C)C2=O)OC [MALYNGAMIDE N]			12	
